Experimental data taken from patent publication US20050112573A1, “Method of detecting toxic substance” (priority 2001, published 2005).

Test system: yeast genes (level of expressed mRNA)
Assay: DNA chip analysis of expressed mRNA of yeast genes after 2 h culture with a toxic chemical substance
Type: cell-based, Saccharomyces cerevisiae S288C
Method in brief: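 Values are treated-to-control fluorescence ratios from a whole-yeast-genome DNA chip (65° C, over 12 h hybridization) using Cy3/Cy5-labelled cDNA from mRNA. Log-phase S288C cells in YPD at 25° C were exposed 2 h to a toxicant at sublethal, growth-inhibiting concentration.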

manganese ethylenebis(dithiocarbamate) [(8)]
2.0: The level of expressed mRNA in the presence of chemical substance/The level of expressed mRNA in the absence of chemical substance (yeast gene YGR213C)
1.7: The level of expressed mRNA in the presence of chemical substance/ (yeast gene YGR154C, ratio to control without chemical substance, 2 h culture) | The level of expressed mRNA in the presence of chemical substance/The level of expressed mRNA in the absence of chemical substance (yeast gene YHR071W)
0.4: The level of expressed mRNA in the presence of chemical substance/ (yeast gene YFL032W, ratio to control without chemical substance, 2 h culture) | The level of expressed mRNA in the presence of chemical substance/The level of expressed mRNA in the absence of chemical substance (yeast gene YJR004C)
1.5: The level of expressed mRNA in the presence of chemical substance/The level of expressed mRNA in the absence of chemical substance (yeast gene YFL028C) | The level of expressed mRNA in the presence of chemical substance/ (yeast gene YGR110W, ratio to control without chemical substance, 2 h culture) | The level of expressed mRNA in the presence of chemical substance/ (yeast gene YJL057C, ratio to control without chemical substance, 2 h culture) | The level of expressed mRNA in the presence of chemical substance/in the absence of chemical substance (yeast gene YJL167W)
24.7: The level of expressed mRNA in the presence of chemical substance/ (yeast gene YKL071W, ratio to control without chemical substance, 2 h culture)
0.6: The level of expressed mRNA in the presence of chemical substance/The level of expressed mRNA in the absence of chemical substance (yeast gene YIL123W)
1.6: The level of expressed mRNA in the presence of chemical substance/ (yeast gene YJR054W, ratio to control without chemical) | The level of expressed mRNA in the presence of chemical substance/The level of expressed mRNA in the absence of chemical substance (yeast gene YKL041W)
3.0: The level of expressed mRNA in the presence of chemical substance/ (yeast gene YGL121C, ratio to control without chemical substance, 2 h culture)
1.3: The level of expressed mRNA in the presence of chemical substance/in the absence of chemical substance (yeast gene YGL035C) | The level of expressed mRNA in the presence of chemical substance/The level of expressed mRNA in the absence of chemical substance (yeast gene YGL158W) | The level of expressed mRNA in the presence of chemical substance/The level of expressed mRNA in the absence of chemical substance (yeast gene YGR136W) | The level of expressed mRNA in the presence of chemical substance/in the absence of chemical substance (yeast gene YGR287C) | The level of expressed mRNA in the presence of chemical substance/The level of expressed mRNA in the absence of chemical substance (yeast gene YHR139C) | The level of expressed mRNA in the presence of chemical substance/The level of expressed mRNA in the absence of chemical substance (yeast gene YHR142W)
0.7: The level of expressed mRNA in the presence of chemical substance/ (yeast gene YGL199C, ratio to control without chemical substance, 2 h culture) | The level of expressed mRNA in the presence of chemical substance/The level of expressed mRNA in the absence of chemical substance (yeast gene YGL229C) | The level of expressed mRNA in the presence of chemical substance/ (yeast gene YIL023C, ratio to control without chemical) | The level of expressed mRNA in the presence of chemical substance/The level of expressed mRNA in the absence of chemical substance (yeast gene YIL140W) | The level of expressed mRNA in the presence of chemical substance/ (yeast gene YJL152W, ratio to control without chemical substance, 2 h culture)
0.8: The level of expressed mRNA in the presence of chemical substance/ (yeast gene YGR101W, ratio to control without chemical substance, 2 h culture) | The level of expressed mRNA in the presence of chemical substance/ (yeast gene YJL066C, ratio to control without chemical substance, 2 h culture) | The level of expressed mRNA in the presence of chemical substance/ (yeast gene YJL151C, ratio to control without chemical substance, 2 h culture) | The level of expressed mRNA in the presence of chemical substance/The level of expressed mRNA in the absence of chemical substance (yeast gene YKL039W)
1.4: The level of expressed mRNA in the presence of chemical substance/ (yeast gene YHR138C, ratio to control without chemical substance, 2 h culture) | The level of expressed mRNA in the presence of chemical substance/ (yeast gene YJL161W, ratio to control without chemical substance, 2 h culture)
1.9: The level of expressed mRNA in the presence of chemical substance/in the absence of chemical substance (yeast gene YJL216C)
1.0: The level of expressed mRNA in the presence of chemical substance/ (yeast gene YFL010C, ratio to control without chemical substance, 2 h culture) | The level of expressed mRNA in the presence of chemical substance/The level of expressed mRNA in the absence of chemical substance (yeast gene YFL043C) | The level of expressed mRNA in the presence of chemical substance/The level of expressed mRNA in the absence of chemical substance (yeast gene YGR189C) | The level of expressed mRNA in the presence of chemical substance/The level of expressed mRNA in the absence of chemical substance (yeast gene YGR257C) | The level of expressed mRNA in the presence of chemical substance/ (yeast gene YHR199C, ratio to control without chemical substance, 2 h culture) | The level of expressed mRNA in the presence of chemical substance/The level of expressed mRNA in the absence of chemical substance (yeast gene YJL073W)
1.8: The level of expressed mRNA in the presence of chemical substance/The level of expressed mRNA in the absence of chemical substance (yeast gene YJL116C)
1.1: The level of expressed mRNA in the presence of chemical substance/ (yeast gene YGL047W, ratio to control without chemical substance, 2 h culture) | The level of expressed mRNA in the presence of chemical substance/ (yeast gene YGR221C, ratio to control without chemical substance, 2 h culture) | The level of expressed mRNA in the presence of chemical substance/ (yeast gene YIL087C, ratio to control without chemical substance, 2 h culture) | The level of expressed mRNA in the presence of chemical substance/in the absence of chemical substance (yeast gene YJL070C) | The level of expressed mRNA in the presence of chemical substance/The level of expressed mRNA in the absence of chemical substance (yeast gene YJL089W) | The level of expressed mRNA in the presence of chemical substance/ (yeast gene YJR008W, ratio to control without chemical substance, 2 h culture) | The level of expressed mRNA in the presence of chemical substance/The level of expressed mRNA in the absence of chemical substance (yeast gene YJR086W)
0.9: The level of expressed mRNA in the presence of chemical substance/ (yeast gene YFL024C, ratio to control without chemical substance, 2 h culture) | The level of expressed mRNA in the presence of chemical substance/ (yeast gene YGR130C, ratio to control without chemical substance, 2 h culture) | The level of expressed mRNA in the presence of chemical substance/The level of expressed mRNA in the absence of chemical substance (yeast gene YHR004C) | The level of expressed mRNA in the presence of chemical substance/ (yeast gene YIL041W, ratio to control without chemical substance, 2 h culture) | The level of expressed mRNA in the presence of chemical substance/ (yeast gene YJL082W, ratio to control without chemical substance, 2 h culture) | The level of expressed mRNA in the presence of chemical substance/ (yeast gene YJL171C, ratio to control without chemical substance, 2 h culture) | The level of expressed mRNA in the presence of chemical substance/The level of expressed mRNA in the absence of chemical substance (yeast gene YKL013C)
1.2: The level of expressed mRNA in the presence of chemical substance/ (yeast gene YGL037C, ratio to control without chemical substance, 2 h culture) | The level of expressed mRNA in the presence of chemical substance/ (yeast gene YGL053W, ratio to control without chemical substance, 2 h culture) | The level of expressed mRNA in the presence of chemical substance/The level of expressed mRNA in the absence of chemical substance (yeast gene YKL008C)
